Test system: ATF4 luciferase reporter in HEK293T cells
Assay: ATF4-Luc assay (in vitro model of VWMD)
Assay type: cell-based, human
Settings: Homo sapiens, HEK-293T, 7 h, HEK293T cells carrying the ATF4 luciferase reporter, 1 μg/mL tunicamycin, One Glo luminescence
Method: In order to test exemplary compounds of the invention in a cellular context, a stable VWMD cell line was first constructed. The ATF4 reporter was prepared by fusing the human full-length ATF4 5′-UTR (NCBI Accession No. BC022088.2) in front of the firefly luciferase (FLuc) coding sequence lacking the initiator methionine as described in Sidrauski et al (eLife 2013). The construct was used to produce recombinant retroviruses using standard methods and the resulting viral supernatant was used to transduce HEK293T cells, which were then subsequently selected with puromycin to generate a stable cell line.
HEK293T cells carrying the ATF4 luciferase reporter were plated on polylysine coated 384-well plates (Greiner Bio-one) at 30,000 cells per well. Cells were treated the next day with 1 μg/mL tunicamycin and 200 nM of a compound of Formula (I) for 7 hours. Luminescence was measured using One Glo (Promega) as specified by the manufacturer. Cells were maintained in DMEM with L-glutamine supplemented with 10% heat-inactivated FBS (Gibco) and Antibiotic-Antimycotic solution (Gibco).
Table 4 below summarizes the EC50 data obtained using the ATF4-Luc assay for exemplary compounds of the invention.

| SMILES | EC50 [µM] |
| --- | --- |
| O=C(NC12CC(n3cc(O[C@H]4C[C@@H](OC(F)(F)F)C4)cn3)(C1)C2)[C@H]1C[C@@H](O)c2cc(Cl)ccc2O1 [Compound 409, (2R,4R)-6-chloro-4-hydroxy-N-[3-(4-{[cis-3-(trifluoromethoxy)cyclobutyl]oxy}-1H-pyrazol-1-yl)bicyclo[1.1.1]pentan-1-yl]-3,4-dihydro-2H-1-benzopyran-2-carboxamide] | < 0.01 |
| CC(F)(F)CCCOc1cnn(C23CC(NC(=O)[C@H]4C[C@@H](O)c5cc(Cl)ccc5O4)(C2)C3)c1 [Compound 521, (2R,4R)-6-chloro-N-(3-{4-[(4,4-difluoropentyl)oxy]-1H-pyrazol-1-yl}bicyclo[1.1.1]pentan-1-yl)-4-hydroxy-3,4-dihydro-2H-1-benzopyran-2-carboxamide] | 0.01 to 0.05 |
| O=C(NC12CC(n3cc(C[C@H]4C[C@@H](OC(F)(F)F)C4)cn3)(C1)C2)[C@H]1C[C@@H](O)c2cc(Cl)c(F)cc2O1 [Compound 532, (2R,4R)-6-chloro-7-fluoro-4-hydroxy-N-[3-(4-{[(1s,3R)-3-(trifluoromethoxy)cyclobutyl]methyl}-1H-pyrazol-1-yl)bicyclo[1.1.1]pentan-1-yl]-3,4-dihydro-2H-1-benzopyran-2-carboxamide] | < 0.01 |
| O=C(COc1ccc(Cl)c(F)c1)NC12CCC(c3nnc([C@H]4C[C@@H](OC(F)(F)F)C4)o3)(CC1)CC2O (some centres unmarked) [Compound 124, 2-(4-chloro-3-fluorophenoxy)-N-(2-hydroxy-4-{5-[(1s,3s)-3-(trifluoromethoxy)cyclobutyl]-1,3,4-oxadiazol-2-yl}bicyclo[2.2.2]octan-1-yl)acetamide] | 0.01 to 0.05 |
| O=C(NC12CC(n3cc(N4CC[C@@H](OC(F)(F)F)C4)cn3)(C1)C2)[C@H]1C[C@@H](O)c2cc(Cl)c(F)cc2O1 [Compound 389, (2R,4R)-6-chloro-7-fluoro-4-hydroxy-N-(3-{4-[(3R)-3-(trifluoromethoxy)pyrrolidin-1-yl]-1H-pyrazol-1-yl}bicyclo[1.1.1]pentan-1-yl)-3,4-dihydro-2H-1-benzopyran-2-carboxamide] | < 0.01 |
| Cc1cc(C)cc(OCC2CN(C34CC(NC(=O)[C@H]5CC(=O)c6cc(Cl)ccc6O5)(C3)C4)C(=O)O2)c1 (stereo partly drawn) [Compound 100, (2R)-6-chloro-N-(3-{5-[(3,5-dimethylphenoxy)methyl]-2-oxo-1,3-oxazolidin-3-yl}bicyclo[1.1.1]pentan-1-yl)-4-oxo-3,4-dihydro-2H-1-benzopyran-2-carboxamide] | > 2 |
| O=C(NC12CC(n3cc(C4CC(COC(F)(F)F)C4)nn3)(C1)C2)[C@H]1C[C@@H](O)c2cc(Cl)ccc2O1 (stereo partly drawn) [Compound 541, (2R,4R)-6-chloro-4-hydroxy-N-[3-(4-{3-[(trifluoromethoxy)methyl]cyclobutyl}-1H-1,2,3-triazol-1-yl)bicyclo[1.1.1]pentan-1-yl]-3,4-dihydro-2H-1-benzopyran-2-carboxamide] | < 0.01 |
| O=C(NC12CC(n3cc(CCOC(F)(F)F)cn3)(C1)C2)[C@H]1C[C@@H](O)c2cc(Cl)c(F)cc2O1 [Compound 515, (2R,4R)-6-chloro-7-fluoro-4-hydroxy-N-(3-{4-[2-(trifluoromethoxy)ethyl]-1H-pyrazol-1-yl}bicyclo[1.1.1]pentan-1-yl)-3,4-dihydro-2H-1-benzopyran-2-carboxamide] | 0.01 to 0.05 |
| O=C1C[C@H](C(=O)N[C@H]2C[C@H]3CC[C@@H](C2)N3CCCOc2ccc(Cl)cc2)Oc2ccc(Cl)cc21 [Compound 101, (2R)-6-chloro-N-{(1R,3r,5S)-8-[3-(4-chlorophenoxy)propyl]-8-azabicyclo[3.2.1]octan-3-yl}-4-oxo-3,4-dihydro-2H-1-benzopyran-2-carboxamide] | > 2 |
| O=C(NC12CC(n3cc(-c4ccc(OC(F)(F)F)cn4)cn3)(C1)C2)[C@H]1C[C@H](O)c2cc(C(F)(F)F)c(F)cc2O1 [Compound 634, (2R,4S)-7-fluoro-4-hydroxy-N-(3-{4-[5-(trifluoromethoxy)pyridin-2-yl]-1H-pyrazol-1-yl}bicyclo[1.1.1]pentan-1-yl)-6-(trifluoromethyl)-3,4-dihydro-2H-1-benzopyran-2-carboxamide] | < 0.01 |
| O=C(NC12CC(n3cc(C(=O)N4CCC(OC(F)(F)F)CC4)cn3)(C1)C2)[C@H]1C[C@@H](O)c2cc(Cl)ccc2O1 [Compound 366, (2R,4R)-6-chloro-4-hydroxy-N-(3-{4-[4-(trifluoromethoxy)piperidine-1-carbonyl]-1H-pyrazol-1-yl}bicyclo[1.1.1]pentan-1-yl)-3,4-dihydro-2H-1-benzopyran-2-carboxamide] | 0.05 to 0.25 |
| O=C(N[C@H]1CC[C@H](C(=O)N2CC(c3ccc(C(F)(F)F)cc3)C2)CC1)[C@H]1C[C@@H](O)c2cc(Cl)ccc2O1 [Compound 323, (2R,4R)-6-chloro-4-hydroxy-N-[trans-4-{3-[4-(trifluoromethyl)phenyl]azetidine-1-carbonyl}cyclohexyl]-3,4-dihydro-2H-1-benzopyran-2-carboxamide] | < 0.01 |
| O=C(N[C@H]1CC[C@H](n2cc(OCCOC(F)(F)F)cn2)CC1)[C@H]1C[C@@H](O)c2cc(Cl)c(Cl)cc2O1 [Compound 459, (2R,4R)-6,7-dichloro-4-hydroxy-N-[(1r,4R)-4-{4-[2-(trifluoromethoxy)ethoxy]-1H-pyrazol-1-yl}cyclohexyl]-3,4-dihydro-2H-1-benzopyran-2-carboxamide] | < 0.01 |
| O=C(NC12CC(n3cc(CN4CC[C@H](OC(F)(F)F)C4)cn3)(C1)C2)[C@H]1C[C@@H](O)c2cc(Cl)ccc2O1 [Compound 339, (2R,4R)-6-chloro-4-hydroxy-N-[3-(4-{[(3S)-3-(trifluoromethoxy)pyrrolidin-1-yl]methyl}-1H-pyrazol-1-yl)bicyclo[1.1.1]pentan-1-yl]-3,4-dihydro-2H-1-benzopyran-2-carboxamide] | 0.25 to 0.5 |
| CN(CCCOC(F)(F)F)c1cnn(C23CC(NC(=O)[C@H]4C[C@@H](O)c5cc(Cl)ccc5O4)(C2)C3)c1 [Compound 430, (2R,4R)-6-chloro-4-hydroxy-N-[3-(4-{methyl[3-(trifluoromethoxy)propyl]amino}-1H-pyrazol-1-yl)bicyclo[1.1.1]pentan-1-yl]-3,4-dihydro-2H-1-benzopyran-2-carboxamide] | 0.01 to 0.05 |
| O=C(NC12CC(n3cnc(C4CC(OC(F)(F)F)C4)c3)(C1)C2)[C@H]1C[C@@H](O)c2cc(C(F)(F)F)ccc2O1 (stereo partly drawn) [Compound 471, (2R,4R)-4-hydroxy-N-(3-{4-[(1s,3S)-3-(trifluoromethoxy)cyclobutyl]-1H-imidazol-1-yl}bicyclo[1.1.1]pentan-1-yl)-6-(trifluoromethyl)-3,4-dihydro-2H-1-benzopyran-2-carboxamide] | < 0.01 |
| O=C(NC12CC(n3cc(N4CC[C@@H](OC(F)(F)F)C4)cn3)(C1)C2)[C@@H]1C[C@@H](O)c2cc(Cl)c(F)cc2O1 [Compound 379, (2S,4R)-6-chloro-7-fluoro-4-hydroxy-N-(3-{4-[(3R)-3-(trifluoromethoxy)pyrrolidin-1-yl]-1H-pyrazol-1-yl}bicyclo[1.1.1]pentan-1-yl)-3,4-dihydro-2H-1-benzopyran-2-carboxamide] | < 0.01 |
| O=C(COc1ccc(C(F)(F)F)c(F)c1)NC12CC(n3cc(C(=O)N4CC[C@H](OC(F)(F)F)C4)cn3)(C1)C2 [Compound 621, 2-[3-fluoro-4-(trifluoromethyl)phenoxy]-N-(3-{4-[(3S)-3-(trifluoromethoxy)pyrrolidine-1-carbonyl]-1H-pyrazol-1-yl}bicyclo[1.1.1]pentan-1-yl)acetamide] | < 0.01 |
| O=C(COc1ccc(Cl)c(F)c1)NC12CC(n3cc(C4CCN(CC(F)(F)F)CC4)cn3)(C1)C2 [Compound 608, 2-(4-chloro-3-fluorophenoxy)-N-(3-{4-[1-(2,2,2-trifluoroethyl)piperidin-4-yl]-1H-pyrazol-1-yl}bicyclo[1.1.1]pentan-1-yl)acetamide] | 0.01 to 0.05 |
| O=C(NC12CC(n3cc(OCCOC(F)(F)F)cn3)(C1)C2)[C@H]1C[C@@H](O)c2cc(Cl)c(F)cc2O1 [Compound 413, (2R,4R)-6-chloro-7-fluoro-4-hydroxy-N-(3-{4-[2-(trifluoromethoxy)ethoxy]-1H-pyrazol-1-yl}bicyclo[1.1.1]pentan-1-yl)-3,4-dihydro-2H-1-benzopyran-2-carboxamide] | < 0.01 |
| O=C(NC12CC(c3nnc(OCCOC(F)(F)F)o3)(C1)C2)[C@H]1C[C@@H](O)c2cc(Cl)ccc2O1 [Compound 468, (2R,4R)-6-chloro-4-hydroxy-N-(3-{5-[2-(trifluoromethoxy)ethoxy]-1,3,4-oxadiazol-2-yl}bicyclo[1.1.1]pentan-1-yl)-3,4-dihydro-2H-1-benzopyran-2-carboxamide] | < 0.01 |
| O=C(N[C@H]1CC[C@H](n2cc(OCCCC(F)(F)F)cn2)CC1)[C@H]1C[C@@H](O)c2cc(Cl)c(F)cc2O1 [Compound 527, (2R,4R)-6-chloro-7-fluoro-4-hydroxy-N-((1r,4R)-4-[4-(4,4,4-trifluorobutoxy)-1H-pyrazol-1-yl]cyclohexyl)-3,4-dihydro-2H-1-benzopyran-2-carboxamide] | < 0.01 |
| O=C(NC12CC(n3cc(OCCOC(F)(F)F)cn3)(C1)C2)[C@@H]1C[C@@H](O)c2cc(Cl)c(Cl)cc2O1 [Compound 434, (2S,4R)-6,7-dichloro-4-hydroxy-N-(3-{4-[2-(trifluoromethoxy)ethoxy]-1H-pyrazol-1-yl}bicyclo[1.1.1]pentan-1-yl)-3,4-dihydro-2H-1-benzopyran-2-carboxamide] | < 0.01 |
